# Reference: patent publication US20150141336A1, “Pancreatic Peptide Compounds and Use” (Novo Nordisk A/S, priority 2012, published 2015)
# Numbered stars: 1 amine (or outer) side, 2 acyl side, 3 side chain; on linkers, the order of the positions; unused ones are H or OH. Side chains are listed from the residue outwards. Peptide text beside a SMILES is read from it. * marks the point of attachment. C18 diacid = O=C(O)CCCCCCCCCCCCCCCCC(=O)*; γGlu = O=C(O)[C@H](CCC(=O)[*:2])N[*:1]; AEEA = NCCOCCOCC(=O)O
# Test: Assay (II) PK i.v. minipig, in vivo half-life
# Set-up: species or system Göttingen mini-pigs
# Conditions: male, Göttingen, minipig, iv, Half-life minipig, Assay (II)
# Procedure: An assay useful for measuring the pharmacokinetic (PK) profile of the PP peptide is the following mini-pig PK assay.
# Five male Göttingen mini-pigs weighing approximately 18 to 22 kg from Ellegaard Göttingen Minipigs NS, Denmark are included in the study. The mini-pigs have two central venous catheters inserted which are used for intra venous (i.v.) dosing and blood sampling. The test compound is dissolved in 50 mM K2HPO4, 0.05% tween 80, pH=8.0 to a concentration of 180 nmol/ml. For comparison a control compound, such as human PP(1-36), may be administered. The pigs are dosed with 6 nmol test compound/kg body weight. Blood samples are taken at the following time points: pre-dose, 30 minutes, 1, 2, 4, 8, 24, 48, 72, 96, 120, 168 and 240 hours post dosing. The blood samples were collected into test tubes containing EDTA buffer for stabilization and kept on ice for max. 20 minutes before centrifugation. The centrifugation procedure to separate plasma may be: 4° C., approx. 2500 g for 10 minutes. Plasma is collected and immediately transferred to Micronic tubes stored at −20° C. until assayed.
# The test compounds were assayed in plasma by Turbulent Flow Chromatography coupled to Liquid Chromatography with subsequent Tandem Mass Spectrometric Detection (TFC/LC/MS/MS). Positive mode ionization and Multiple Reaction Monitoring (MRM) of a multiple protonated species fragmented to a singly charged ion was employed for selectivity. The selectivity of the method allows multiple compounds to be quantified in one sample.
# The concentrations of the test compound in samples of unknown concentration were calculated using the peak area as a function of amount. Calibration graphs based on plasma samples spiked with the analyte were constructed by regression analysis. Typical dynamic range for standard assay was 1-2000 nmol/I. The method performance was assured by co-assaying quality control (QC) samples in duplicate at three concentration levels.
# Stock and working solutions of analytes were prepared in plasma and incubated by 37° C. for 1 hour.
# Sample Preparation: 40.0 μl EDTA-plasma was added 160 μl 50% methanol, 1% formic acid, then vortexed and centrifuged at 16457 g at 4° C. for 20 minutes. The supernatant was transferred to a 96 well plate, plates incubated with 0.4% BSA, 37° C. for ½ hour. Injection volume was 25 μl.
# The analysis was carried out on a Sciex API 3000 mass spectrometer (MDS/Sciex, Concord, ON, Canada) using a TurbolonSpray interface. The TFC/LC system consisted of two Flux Rheos 2000 quaternary pumps, a Cohesive VIM module (Cohesive Technologies, Franklin, Mass., USA) and a CTC LC/PAL auto sampler (CTC Analytics, Zingen, Switzerland). The centrifuge employed was a HettichMikro 22R (A. Hettich, Tuttlingen, Germany). For sample clean up a TurboFlow C8 column (0.5×50 mm) (Cohesive Technologies/Thermofisher) was used and the LC separation was done on a Proteo 4 μm column (2.0×50 mm) (Phenomenex, Torrance, Calif., USA). Eluents were isocratic and gradient combinations of methanol, acetonitril, Milli-Q water and formic acid.
# Non-compartmental analysis (NCA): Plasma concentration-time profiles are analyzed by non-compartmental pharmacokinetics analysis (NCA) using WinNonlin Professional 5.0 (Pharsight Inc., Mountain View, Calif., USA). NCA is performed using the individual plasma concentration-time profiles from each animal.
row,half-life,SMILES
1,2700 min,CC[C@H](C)[C@H](NC(=O)[C@H](Cc1ccc(O)cc1)NC(=O)[C@H](CCCNC(=N)N)NC(=O)[C@H](CCCNC(=N)N)NC(=O)[C@H](CC(C)C)NC(=O)[C@H](CC(=O)O)NC(=O)[C@H](C)NC(=O)[C@H](C)NC(=O)[C@H](Cc1ccc(O)cc1)NC(=O)[C@H](CCC(N)=O)NC(=O)[C@H](C)NC(=O)[C@H](CCSC)NC(=O)[C@H](CCC(N)=O)NC(=O)[C@H](CCC(=O)O)NC(=O)[C@H](CCCCNC(=O)COCCOCCNC(=O)COCCOCCNC(=O)CC[C@H](NC(=O)CCCCCCCCCCCCCCCCC(=O)O)C(=O)O)NC(=O)[C@@H](NC(=O)[C@H](C)NC(=O)[C@H](CC(N)=O)NC(=O)[C@H](CC(=O)O)NC(=O)CNC(=O)[C@@H]1CCCN1C(=O)[C@H](Cc1ccc(O)cc1)NC(=O)[C@@H](NC(=O)[C@@H]1CCCN1C(=O)[C@H](CCC(=O)O)NC(=O)[C@H](CC(C)C)NC(=O)[C@@H]1CCCN1)C(C)C)[C@@H](C)O)C(=O)N[C@@H](CC(N)=O)C(=O)N[C@@H](CCSC)C(=O)N[C@@H](CC(C)C)C(=O)N[C@H](C(=O)N[C@@H](CCCNC(=N)N)C(=O)N1CCC[C@H]1C(=O)N[C@@H](CCCNC(=N)N)C(=O)N[C@@H](Cc1ccc(O)cc1)C(N)=O)[C@@H](C)O [Compound T] (H-PLEPVYPGDNATK([AEEA-AEEA-γGlu-C18 diacid])EQMAQYAADLRRYINMLTRPRY-NH2; N-terminus and C-terminus assumed)
2,2100 min,CC[C@H](C)[C@H](NC(=O)[C@H](Cc1ccc(O)cc1)NC(=O)[C@H](CCCNC(=N)N)NC(=O)[C@H](CCCNC(=N)N)NC(=O)[C@H](CC(C)C)NC(=O)[C@H](CC(=O)O)NC(=O)[C@H](C)NC(=O)[C@H](C)NC(=O)[C@H](Cc1ccc(O)cc1)NC(=O)[C@H](CCC(N)=O)NC(=O)[C@H](C)NC(=O)[C@H](CCSC)NC(=O)[C@H](CCC(N)=O)NC(=O)[C@H](CCCCNC(=O)COCCOCCNC(=O)COCCOCCNC(=O)CC[C@H](NC(=O)CCCCCCCCCCCCCCCCC(=O)O)C(=O)O)NC(=O)[C@@H]1CCCN1C(=O)[C@@H](NC(=O)[C@H](C)NC(=O)[C@H](CC(N)=O)NC(=O)[C@H](CC(=O)O)NC(=O)CNC(=O)[C@@H]1CCCN1C(=O)[C@H](Cc1ccc(O)cc1)NC(=O)[C@@H](NC(=O)[C@@H]1CCCN1C(=O)[C@H](CCC(=O)O)NC(=O)[C@H](CC(C)C)NC(=O)[C@@H]1CCCN1)C(C)C)[C@@H](C)O)C(=O)N[C@@H](CC(N)=O)C(=O)N[C@@H](CCSC)C(=O)N[C@@H](CC(C)C)C(=O)N[C@H](C(=O)N[C@@H](CCCNC(=N)N)C(=O)N1CCC[C@H]1C(=O)N[C@@H](CCCNC(=N)N)C(=O)N[C@@H](Cc1ccc(O)cc1)C(N)=O)[C@@H](C)O [Compound S] (H-PLEPVYPGDNATPK([AEEA-AEEA-γGlu-C18 diacid])QMAQYAADLRRYINMLTRPRY-NH2; N-terminus and C-terminus assumed)
3,6600 min,CC[C@H](C)[C@H](NC(=O)[C@H](Cc1ccc(O)cc1)NC(=O)[C@H](CCCNC(=N)N)NC(=O)[C@H](CCCNC(=N)N)NC(=O)[C@H](CC(C)C)NC(=O)[C@H](CC(=O)O)NC(=O)[C@H](C)NC(=O)[C@H](C)NC(=O)[C@H](Cc1ccc(O)cc1)NC(=O)[C@H](CCC(N)=O)NC(=O)[C@H](C)NC(=O)[C@H](CCSC)NC(=O)[C@H](CCC(N)=O)NC(=O)[C@H](CCC(=O)O)NC(=O)[C@@H]1CCCN1C(=O)[C@@H](NC(=O)[C@H](C)NC(=O)[C@H](CC(N)=O)NC(=O)[C@H](CC(=O)O)NC(=O)CNC(=O)[C@@H]1CCCN1C(=O)[C@H](Cc1ccc(O)cc1)NC(=O)[C@@H](NC(=O)[C@@H]1CCCN1C(=O)[C@H](CCC(=O)O)NC(=O)[C@H](CC(C)C)NC(=O)[C@@H]1CCCN1)C(C)C)[C@@H](C)O)C(=O)N[C@@H](CCCCNC(=O)COCCOCCNC(=O)COCCOCCNC(=O)CC[C@H](NC(=O)CCCCCCCCCCCCCCCCC(=O)O)C(=O)O)C(=O)N[C@@H](CCSC)C(=O)N[C@@H](CC(C)C)C(=O)N[C@H](C(=O)N[C@@H](CCCNC(=N)N)C(=O)N1CCC[C@H]1C(=O)N[C@@H](CCCNC(=N)N)C(=O)N[C@@H](Cc1ccc(O)cc1)C(N)=O)[C@@H](C)O [Compound E] (H-PLEPVYPGDNATPEQMAQYAADLRRYIK([AEEA-AEEA-γGlu-C18 diacid])MLTRPRY-NH2; N-terminus and C-terminus assumed)
